Data reported in ChEMBL document CHEMBL5678818, “Discovery of potent SOS1 inhibitors that block RAS activation via disruption of the RAS-SOS1 interaction” (Proc Natl Acad Sci U S A, 2019).

Key:
[1] = target: Dual specificity protein kinase CLK2 (Homo sapiens) (UniProt P49760); experiment: Inhibition of CLK2 (unknown origin) assessed as residual activity at 1000 nM by KINOMEscan analysis relative to control
[2] = target: Tyrosine-protein kinase HCK (Homo sapiens) (UniProt P08631); experiment: Inhibition of HCK (unknown origin) assessed as residual activity at 1000 nM by KINOMEscan analysis relative to control
[3] = target: Mitogen-activated protein kinase 4 (Homo sapiens) (UniProt P31152); experiment: Inhibition of ERK4 (unknown origin) assessed as residual activity at 1000 nM by KINOMEscan analysis relative to control
[4] = test system: Tyrosine-protein kinase ABL1 (Homo sapiens), P00519 [T315I]; experiment: Inhibition of nonphosphorylated ABL1 T315I mutant (unknown origin) assessed as residual activity at 1000 nM by KINOMEscan analysis relative to control
[5] = target: Serine/threonine-protein kinase mTOR (Homo sapiens) (UniProt P42345); experiment: Inhibition of MTOR (unknown origin) assessed as residual activity at 1000 nM by KINOMEscan analysis relative to control
[6] = target: Mitogen-activated protein kinase kinase kinase 10 (Homo sapiens) (UniProt Q02779); experiment: Inhibition of MLK2 (unknown origin) assessed as residual activity at 1000 nM by KINOMEscan analysis relative to control
Chain of Mitogen-activated protein kinase kinase kinase 10 (Homo sapiens) (Q02779 whole entry, looked up): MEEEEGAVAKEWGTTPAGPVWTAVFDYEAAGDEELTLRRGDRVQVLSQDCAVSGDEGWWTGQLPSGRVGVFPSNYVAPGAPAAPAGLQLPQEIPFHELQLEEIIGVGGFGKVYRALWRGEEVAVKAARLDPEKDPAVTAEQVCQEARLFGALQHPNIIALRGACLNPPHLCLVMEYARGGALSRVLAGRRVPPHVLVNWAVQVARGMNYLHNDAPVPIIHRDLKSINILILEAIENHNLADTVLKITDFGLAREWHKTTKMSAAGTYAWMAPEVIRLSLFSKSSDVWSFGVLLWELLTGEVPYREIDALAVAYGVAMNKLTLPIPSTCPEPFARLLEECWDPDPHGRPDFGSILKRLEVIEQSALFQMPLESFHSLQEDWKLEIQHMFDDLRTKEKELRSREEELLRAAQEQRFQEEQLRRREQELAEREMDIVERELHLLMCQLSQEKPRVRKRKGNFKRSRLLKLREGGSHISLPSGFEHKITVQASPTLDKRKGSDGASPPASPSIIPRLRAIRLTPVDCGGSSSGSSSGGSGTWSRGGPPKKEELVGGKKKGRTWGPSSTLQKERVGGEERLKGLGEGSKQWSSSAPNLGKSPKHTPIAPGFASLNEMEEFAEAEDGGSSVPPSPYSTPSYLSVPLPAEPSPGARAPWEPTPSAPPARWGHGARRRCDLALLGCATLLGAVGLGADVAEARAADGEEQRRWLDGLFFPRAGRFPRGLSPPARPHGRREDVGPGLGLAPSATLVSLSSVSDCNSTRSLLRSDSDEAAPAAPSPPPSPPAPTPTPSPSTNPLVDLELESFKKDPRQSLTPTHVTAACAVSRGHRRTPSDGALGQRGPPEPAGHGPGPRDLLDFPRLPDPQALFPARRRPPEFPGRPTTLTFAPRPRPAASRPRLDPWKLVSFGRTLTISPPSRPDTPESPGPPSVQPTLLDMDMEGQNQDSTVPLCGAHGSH

[7] = target: Serine/threonine-protein kinase PAK 4 (Homo sapiens) (UniProt O96013); experiment: Inhibition of PAK4 (unknown origin) assessed as residual activity at 1000 nM by KINOMEscan analysis relative to control
Chain of Serine/threonine-protein kinase PAK 4 (Homo sapiens) (O96013 whole entry, looked up): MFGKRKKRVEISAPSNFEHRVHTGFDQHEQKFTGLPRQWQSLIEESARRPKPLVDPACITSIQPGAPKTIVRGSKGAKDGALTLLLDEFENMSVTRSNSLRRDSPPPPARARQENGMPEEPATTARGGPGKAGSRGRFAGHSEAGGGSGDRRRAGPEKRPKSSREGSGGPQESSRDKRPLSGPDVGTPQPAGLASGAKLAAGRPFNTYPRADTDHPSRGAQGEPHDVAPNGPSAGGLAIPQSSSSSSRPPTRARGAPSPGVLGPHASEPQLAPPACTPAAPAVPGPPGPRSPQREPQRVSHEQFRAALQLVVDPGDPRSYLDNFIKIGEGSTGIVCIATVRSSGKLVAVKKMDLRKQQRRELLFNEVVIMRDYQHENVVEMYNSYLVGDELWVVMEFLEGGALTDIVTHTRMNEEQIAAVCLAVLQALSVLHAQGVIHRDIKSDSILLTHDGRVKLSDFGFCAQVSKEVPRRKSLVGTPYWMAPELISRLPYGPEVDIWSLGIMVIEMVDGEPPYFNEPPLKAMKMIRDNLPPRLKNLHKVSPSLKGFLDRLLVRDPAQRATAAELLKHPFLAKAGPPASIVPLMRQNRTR

[8] = test system: Mast/stem cell growth factor receptor Kit (Homo sapiens), P10721 [V559D,V654A]; experiment: Inhibition of KIT V559D/V654A mutant (unknown origin) assessed as residual activity at 1000 nM by KINOMEscan analysis relative to control
Chain of Mast/stem cell growth factor receptor Kit (Homo sapiens), P10721 [V559D,V654A] (P10721 whole entry V559D/V654A): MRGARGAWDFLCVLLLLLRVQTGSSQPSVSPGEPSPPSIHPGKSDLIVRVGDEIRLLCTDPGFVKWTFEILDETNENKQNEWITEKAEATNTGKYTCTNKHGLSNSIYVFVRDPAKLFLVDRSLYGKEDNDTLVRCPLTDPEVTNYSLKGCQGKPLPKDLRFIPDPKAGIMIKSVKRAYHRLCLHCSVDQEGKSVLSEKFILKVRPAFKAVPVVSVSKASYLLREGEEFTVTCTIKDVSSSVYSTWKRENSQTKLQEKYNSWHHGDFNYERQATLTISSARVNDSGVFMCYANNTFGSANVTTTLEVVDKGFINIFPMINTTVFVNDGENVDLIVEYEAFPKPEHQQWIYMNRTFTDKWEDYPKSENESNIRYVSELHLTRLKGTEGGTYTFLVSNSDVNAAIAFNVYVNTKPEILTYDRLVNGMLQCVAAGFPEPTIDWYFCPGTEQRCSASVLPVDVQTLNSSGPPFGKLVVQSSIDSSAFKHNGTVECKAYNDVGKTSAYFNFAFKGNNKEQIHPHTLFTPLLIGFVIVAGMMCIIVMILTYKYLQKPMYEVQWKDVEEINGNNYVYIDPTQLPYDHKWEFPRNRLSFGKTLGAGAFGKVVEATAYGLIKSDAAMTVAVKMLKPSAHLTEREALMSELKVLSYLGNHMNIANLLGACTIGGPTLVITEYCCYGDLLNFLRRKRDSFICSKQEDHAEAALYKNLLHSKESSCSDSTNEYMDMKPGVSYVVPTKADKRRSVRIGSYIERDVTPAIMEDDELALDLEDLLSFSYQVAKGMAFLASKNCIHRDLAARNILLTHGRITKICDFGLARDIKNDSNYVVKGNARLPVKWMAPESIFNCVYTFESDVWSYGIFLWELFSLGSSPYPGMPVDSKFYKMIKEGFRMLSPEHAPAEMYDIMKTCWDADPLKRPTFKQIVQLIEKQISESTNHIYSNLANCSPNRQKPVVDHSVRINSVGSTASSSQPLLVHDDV

[9] = target: Mitogen-activated protein kinase 3 (Homo sapiens) (UniProt P27361); experiment: Inhibition of ERK1 (unknown origin) assessed as residual activity at 1000 nM by KINOMEscan analysis relative to control
Chain of Mitogen-activated protein kinase 3 (Homo sapiens) (P27361 whole entry): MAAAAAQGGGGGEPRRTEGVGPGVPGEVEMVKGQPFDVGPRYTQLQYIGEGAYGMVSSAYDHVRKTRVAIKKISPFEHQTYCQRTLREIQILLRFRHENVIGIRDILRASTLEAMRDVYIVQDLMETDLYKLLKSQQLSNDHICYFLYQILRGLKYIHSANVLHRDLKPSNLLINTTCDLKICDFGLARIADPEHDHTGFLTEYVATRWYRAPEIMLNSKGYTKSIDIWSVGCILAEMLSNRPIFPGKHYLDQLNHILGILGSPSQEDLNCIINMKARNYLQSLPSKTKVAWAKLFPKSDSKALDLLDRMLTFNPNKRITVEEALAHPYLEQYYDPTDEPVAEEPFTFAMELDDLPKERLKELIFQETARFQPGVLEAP

[10] = target: T1, 3-phosphoinositide-dependent protein kinase 1 (Homo sapiens) (UniProt O15530); experiment: Inhibition of PDPK1 (unknown origin) assessed as residual activity at 1000 nM by KINOMEscan analysis relative to control
T1 sequence (whole entry): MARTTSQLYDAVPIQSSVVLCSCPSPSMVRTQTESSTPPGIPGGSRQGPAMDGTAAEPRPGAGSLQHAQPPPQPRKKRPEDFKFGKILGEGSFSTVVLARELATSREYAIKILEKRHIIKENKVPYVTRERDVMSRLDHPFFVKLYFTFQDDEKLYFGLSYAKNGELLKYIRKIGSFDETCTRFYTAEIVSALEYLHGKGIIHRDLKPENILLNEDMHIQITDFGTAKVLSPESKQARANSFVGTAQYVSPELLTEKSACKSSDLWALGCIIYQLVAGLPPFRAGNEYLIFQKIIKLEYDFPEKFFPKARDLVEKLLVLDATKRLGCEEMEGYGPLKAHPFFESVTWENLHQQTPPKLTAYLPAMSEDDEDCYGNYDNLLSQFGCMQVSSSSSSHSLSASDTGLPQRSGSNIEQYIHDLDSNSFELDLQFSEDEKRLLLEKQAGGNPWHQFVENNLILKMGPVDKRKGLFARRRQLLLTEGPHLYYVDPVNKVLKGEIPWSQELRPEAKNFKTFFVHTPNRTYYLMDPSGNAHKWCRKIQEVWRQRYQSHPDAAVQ

[11] = target: Serine/threonine-protein kinase pim-3 (Homo sapiens) (UniProt Q86V86); experiment: Inhibition of PIM3 (unknown origin) assessed as residual activity at 1000 nM by KINOMEscan analysis relative to control
[12] = target: T2, Serine/threonine-protein kinase BRSK1 (Homo sapiens) (UniProt Q8TDC3); experiment: Inhibition of BRSK1 (unknown origin) assessed as residual activity at 1000 nM by KINOMEscan analysis relative to control
T2 sequence (whole entry): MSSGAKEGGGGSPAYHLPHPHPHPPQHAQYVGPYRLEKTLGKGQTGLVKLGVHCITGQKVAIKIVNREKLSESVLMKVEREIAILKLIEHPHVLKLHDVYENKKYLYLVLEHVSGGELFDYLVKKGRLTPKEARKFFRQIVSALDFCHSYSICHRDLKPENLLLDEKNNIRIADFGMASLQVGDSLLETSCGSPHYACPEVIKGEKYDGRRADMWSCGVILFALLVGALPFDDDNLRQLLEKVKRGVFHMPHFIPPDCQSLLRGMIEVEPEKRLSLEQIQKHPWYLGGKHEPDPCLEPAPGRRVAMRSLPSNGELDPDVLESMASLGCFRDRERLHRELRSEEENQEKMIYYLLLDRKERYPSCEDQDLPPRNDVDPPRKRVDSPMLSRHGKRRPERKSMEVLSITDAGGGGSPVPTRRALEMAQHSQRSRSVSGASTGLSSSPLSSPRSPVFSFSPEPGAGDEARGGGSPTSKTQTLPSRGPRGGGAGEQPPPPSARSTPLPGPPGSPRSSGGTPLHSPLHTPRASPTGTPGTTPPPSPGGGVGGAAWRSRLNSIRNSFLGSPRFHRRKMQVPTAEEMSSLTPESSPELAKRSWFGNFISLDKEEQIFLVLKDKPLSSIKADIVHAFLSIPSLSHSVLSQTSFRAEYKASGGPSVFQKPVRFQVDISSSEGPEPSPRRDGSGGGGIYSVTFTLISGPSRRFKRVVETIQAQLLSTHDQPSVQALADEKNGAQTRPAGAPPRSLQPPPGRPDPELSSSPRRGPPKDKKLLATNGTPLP

[13] = target: Tyrosine-protein kinase ABL2 (Homo sapiens) (UniProt P42684); experiment: Inhibition of ABL2 (unknown origin) assessed as residual activity at 1000 nM by KINOMEscan analysis relative to control
Chain of Tyrosine-protein kinase ABL2 (Homo sapiens) (P42684 whole entry): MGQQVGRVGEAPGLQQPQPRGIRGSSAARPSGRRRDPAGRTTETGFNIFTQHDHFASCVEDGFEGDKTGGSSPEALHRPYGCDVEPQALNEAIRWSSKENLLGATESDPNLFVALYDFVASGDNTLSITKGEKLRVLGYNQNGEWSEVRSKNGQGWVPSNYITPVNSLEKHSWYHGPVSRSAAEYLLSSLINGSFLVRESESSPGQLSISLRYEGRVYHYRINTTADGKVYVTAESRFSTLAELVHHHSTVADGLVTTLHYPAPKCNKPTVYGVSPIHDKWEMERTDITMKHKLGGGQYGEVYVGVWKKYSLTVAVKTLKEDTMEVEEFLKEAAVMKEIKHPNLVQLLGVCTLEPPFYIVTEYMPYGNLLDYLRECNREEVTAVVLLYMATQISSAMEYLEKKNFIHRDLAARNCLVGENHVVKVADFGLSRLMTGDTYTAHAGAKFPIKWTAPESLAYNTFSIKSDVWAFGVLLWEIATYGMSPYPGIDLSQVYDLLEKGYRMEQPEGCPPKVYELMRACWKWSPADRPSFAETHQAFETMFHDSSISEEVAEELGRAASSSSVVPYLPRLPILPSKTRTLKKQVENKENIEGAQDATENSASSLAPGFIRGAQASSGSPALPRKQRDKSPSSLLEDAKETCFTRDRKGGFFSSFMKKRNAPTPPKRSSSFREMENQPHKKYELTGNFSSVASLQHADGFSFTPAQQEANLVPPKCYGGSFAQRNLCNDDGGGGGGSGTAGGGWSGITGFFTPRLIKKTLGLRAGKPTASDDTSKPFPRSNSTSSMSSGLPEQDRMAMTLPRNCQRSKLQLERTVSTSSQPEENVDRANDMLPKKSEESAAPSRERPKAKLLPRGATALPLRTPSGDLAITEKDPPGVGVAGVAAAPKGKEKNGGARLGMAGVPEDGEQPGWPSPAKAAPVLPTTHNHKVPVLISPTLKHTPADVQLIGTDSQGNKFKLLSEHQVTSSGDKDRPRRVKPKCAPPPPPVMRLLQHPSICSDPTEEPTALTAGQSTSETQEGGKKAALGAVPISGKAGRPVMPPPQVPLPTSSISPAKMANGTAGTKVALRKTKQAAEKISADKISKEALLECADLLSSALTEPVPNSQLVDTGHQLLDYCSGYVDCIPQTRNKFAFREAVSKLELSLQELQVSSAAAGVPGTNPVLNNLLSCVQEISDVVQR

[14] = target: T3, Serine/threonine-protein kinase 17A (Homo sapiens) (UniProt Q9UEE5); experiment: Inhibition of DRAK1 (unknown origin) assessed as residual activity at 1000 nM by KINOMEscan analysis relative to control
T3 sequence (whole entry): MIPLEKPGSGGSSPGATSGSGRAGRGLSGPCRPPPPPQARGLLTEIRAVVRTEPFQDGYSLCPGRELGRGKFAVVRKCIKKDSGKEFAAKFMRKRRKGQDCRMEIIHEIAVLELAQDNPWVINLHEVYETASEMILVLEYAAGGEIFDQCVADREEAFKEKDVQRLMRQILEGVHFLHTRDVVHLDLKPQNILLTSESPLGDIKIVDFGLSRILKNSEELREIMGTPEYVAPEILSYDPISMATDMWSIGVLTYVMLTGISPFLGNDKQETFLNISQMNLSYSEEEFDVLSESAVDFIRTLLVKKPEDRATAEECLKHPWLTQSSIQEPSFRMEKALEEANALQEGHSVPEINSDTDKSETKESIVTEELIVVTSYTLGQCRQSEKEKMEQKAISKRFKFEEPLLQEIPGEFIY

Chain of Dual specificity protein kinase CLK2 (Homo sapiens) (P49760 whole entry, looked up): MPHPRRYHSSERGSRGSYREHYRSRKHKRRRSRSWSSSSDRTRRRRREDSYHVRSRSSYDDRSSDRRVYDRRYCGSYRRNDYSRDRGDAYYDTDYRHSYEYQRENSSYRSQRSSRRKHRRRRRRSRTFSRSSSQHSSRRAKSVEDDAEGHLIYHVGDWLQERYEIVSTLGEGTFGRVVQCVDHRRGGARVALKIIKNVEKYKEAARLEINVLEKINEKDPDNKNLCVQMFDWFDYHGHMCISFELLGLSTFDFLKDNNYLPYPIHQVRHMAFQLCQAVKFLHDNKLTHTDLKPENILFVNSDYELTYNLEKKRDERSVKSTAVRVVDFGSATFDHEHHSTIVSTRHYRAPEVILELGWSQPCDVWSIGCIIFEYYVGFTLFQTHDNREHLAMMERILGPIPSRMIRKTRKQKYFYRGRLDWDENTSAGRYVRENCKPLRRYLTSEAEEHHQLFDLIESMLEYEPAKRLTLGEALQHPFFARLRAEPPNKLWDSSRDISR

Compound: COc1cc2nc(C)nc(N[C@H](C)c3cccc(-c4cn[nH]c4)c3)c2cc1OC
- Activity [1]: 78%
- Activity [2]: 77%
- Activity [3]: 92%
- Activity [4]: 95%
- Activity [5]: 62%
- Activity [6]: 42%
- Activity [7]: 86%
- Activity [8]: 92%
- Activity [9]: 100%
- Activity [10]: 97%
- Activity [11]: 90%
- Activity [12]: 100%
- Activity [13]: 73%
- Activity [14]: 87%

Compound: COc1cc2ncnc(N[C@H](C)c3cccc4ccccc34)c2cc1OC
- Activity [1]: 100%
- Activity [2]: 93%
- Activity [3]: 89%
- Activity [4]: 100%
- Activity [5]: 95%
- Activity [6]: 97%
- Activity [7]: 100%
- Activity [8]: 100%
- Activity [9]: 100%
- Activity [10]: 88%
- Activity [11]: 100%
- Activity [12]: 100%
- Activity [13]: 100%
- Activity [14]: 100%
